Assay results: patent publication US6538106B1, “Compositions and methods for treating infections using analogues of indolicidin” (priority 1996, dated 2003)
Counter-ions that a name gives are not always drawn. Like-named read-outs stand apart in the source and are kept apart here. Peptide text beside a SMILES is read from it.

What was measured:
S. marcescens [1] = assay: Broth dilution assay (MIC); format: cell-based; conditions: S. marcescens SMS003
Method: (§1) This assay also uses calcium and magnesium supplemented Mueller Hinton broth as the growth medium. Typically 100 μl of broth is dispensed into each well of a 96-well microtitre plate and 100 μl volumes of two-fold serial dilutions of the peptide analogue are made across the plate. One row of wells receives no peptide and is used as a growth control. Each well is inoculated with approximately 5×10^5 CFU of bacteria and the plate is incubated at 35-37° C. for 16-20 hours.
(§2) For example, MIC values were established for a series of peptide analogues against S. aureus strains.

S. epidermidis = assay: Broth dilution assay (MIC); format: cell-based; conditions: S. epidermidis SE005
Method: as §1, §2

K. pneumoniae [2] = assay: Broth dilution assay (MIC); format: cell-based; conditions: K. pneumoniae KP001
Method: as §1, §2

E. faecalis [3] = assay: Broth dilution assay (MIC); format: cell-based; conditions: E. faecalis EFS004
Method: as §1, §2

S. aureus [4] = assay: Broth dilution assay (MIC); format: cell-based; conditions: S. aureus SA002
Method: as §1, §2

S. maltophilia [5] = assay: Broth dilution assay (MIC); format: cell-based; conditions: S. maltophilia SMA002
Method: as §1, §2

E. coli [6] = assay: Broth dilution assay (MIC); format: cell-based; conditions: E. coli ECO005
Method: as §1, §2

E. cloacae [7] = assay: Broth dilution assay (MIC); format: cell-based; conditions: E. cloacae ECL007
Method: as §1, §2

P. aeruginosa [8] = assay: Broth dilution assay (MIC); format: cell-based; conditions: P. aeruginosa PA004
Method: as §1, §2

A. calcoaceticus [9] = assay: Broth dilution assay (MIC); format: cell-based; conditions: A. calcoaceticus AC001
Method: as §1, §2

E.coli strain ML-35 = format: cell-based; conditions: for Growth time of cells at which maximum activity occurs: 50 μg/ml peptide
[10] = system: MSSA (Smith, ATCC # 19640); assay: MSSA infection, mouse survival; format: in vivo, mice; conditions: formulation D
E. faecalis [11] = assay: MIC of APS-modified and parent peptides; format: cell-based
Method: (§3) All biological assays that compare APS-modified peptides with unmodified peptides are performed on an equimolar ratio. The concentration of APS-modified peptides can be determined by spectrophotometric measurement, which is used to normalize concentrations for biological assays.
(§4) APS-modified peptides are at least as potent as the parent peptides in in vitro assays performed as described herein. MIC values against gram positive bacteria are presented for several APS-modified peptides and compared with the values obtained using the parent peptides (Table 22).

S. aureus [12] = assay: MIC of APS-modified and parent peptides; format: cell-based
Method: as §3, §4

[13] = system: S. epidermidis (ATCC # 12228); assay: S. epidermidis infection, mouse survival; format: in vivo, mice
E. cloacae [14] = assay: MIC of APS-modified and parent peptides; format: cell-based; conditions: E. cloacae ECL007
MRSA (ATCC # 33591) = assay: MRSA infection, mouse survival; format: in vivo, mice; conditions: for Percentage of Animals Surviving, Treatment: iv, formulation D
S. maltophilia [15] = assay: MIC of APS-modified and parent peptides; format: cell-based; conditions: S. maltophilia SMA002
Liposome dye release = format: biochemical
Method: In this example, a dye pair consisting of the fluorescent molecule 8-aminonapthalene-1,3,6-trisulfonic acid (ANTS) and its quencher molecule p-xylene-bis-pyridinium bromide (DPX) are used. The mixture of free dye molecules, dye free liposomes, and liposomes containing encapsulated ANTS-DPX are separated by size exclusion chromatography. In the assay, the test peptide is incubated with the ANTS-DPX containing liposomes and the fluorescence due to ANTS release to the outside of the liposome is measured over time.
Using this assay, peptide activity, measured by dye release, is shown to be extremely sensitive to the composition of the liposomes at many liposome to peptide ratios (L/P) (FIG. 7). […] This […] selectivity may mimic that observed […] for bacterial cells in the presence of mammalian cells.
ANTS/DPX can be replaced with fluorescein isothiocyanate-labeled dextran (FD-4), molecular weight 4,400, in the egg PC liposomes.

E. coli [16] = assay: MIC of APS-modified and parent peptides; format: cell-based; conditions: E. coli ECO005
A. calcoaceticus [17] = assay: MIC of APS-modified and parent peptides; format: cell-based; conditions: A. calcoaceticus AC002
S. marcescens [18] = assay: MIC of APS-modified and parent peptides; format: cell-based; conditions: S. marcescens SMS003
P. aeruginosa [19] = assay: MIC of APS-modified and parent peptides; format: cell-based; conditions: P. aeruginosa PA004
K. pneumoniae [20] = assay: MIC of APS-modified and parent peptides; format: cell-based; conditions: K. pneumoniae KP001
[21] = Acute single dose toxicity in isotonic saline (ip, iv, sc); format: in vivo, Swiss CD1 mice; conditions: 5 days
Method: The acute, single dose toxicity of various indolicidin analogues is tested in Swiss CD1 mice using various routes of administration. In order to determine the inherent toxicities of the peptide analogues in the absence of any formulation/delivery vehicle effects, the peptides are all administered in isotonic saline with the final pH between 6 and 7.
After administration, the mice are observed for a period of 5 days.

| Compound | MIC (S. marcescens [1]) | MIC (S. epidermidis) | MIC (K. pneumoniae [2]) | MIC (E. faecalis [3]) | MIC (S. aureus [4]) | MIC (S. maltophilia [5]) | MIC (E. coli [6]) | MIC (E. cloacae [7]) | MIC (P. aeruginosa [8]) | MIC (A. calcoaceticus [9]) | Corrected MIC (E. faecalis [11]; E. faecalis EFS001) | Corrected MIC (E. faecalis [11]; E. faecalis EFS004) | Corrected MIC (E. faecalis [11]; E. faecalis EFS008) | Corrected MIC (S. aureus [12]; S. aureus SA010) | Corrected MIC (S. aureus [12]; S. aureus SA014) | Corrected MIC (S. aureus [12]; S. aureus SA018) | Corrected MIC (S. aureus [12]; S. aureus SA025) | Corrected MIC (S. aureus [12]; S. aureus SA093) | Corrected MIC (S. maltophilia [15]) | Corrected MIC (E. coli [16]) | further results |
| --- | --- | --- | --- | --- | --- | --- | --- | --- | --- | --- | --- | --- | --- | --- | --- | --- | --- | --- | --- | --- | --- |
| I L P W K W P W W P W R R [MBI 10CN] | >256 µg/mL | 8 µg/mL | 64 µg/mL | 64 µg/mL | 16 µg/mL | 64 µg/mL | 64 µg/mL | 256 µg/mL | >256 µg/mL | 64 µg/mL | – | – | – | – | – | – | – | – | – | – | ONPG hydrolysis diminished, cells pre-incubated with valinomycin vs no pre-incubation (E.coli strain ML-35): approximately 50%; survival at lower doses ([10]; below 14.5 mg/kg ip): clear dose-dependent survival |
| I L K K W P W W P W R R K [MBI 11CN] | – | – | – | – | – | – | – | – | – | – | 32 µg/mL | 8 µg/mL | 64 µg/mL | 2 µg/mL | 16 µg/mL | 64 µg/mL | 4 µg/mL | 2 µg/mL | 128 µg/mL | 16 µg/mL | Corrected MIC (S. aureus [12]; S. aureus SA011): 8 µg/mL; survival of mice ([13]; iv, formulation D, treatment 15 minutes post-infection): Efficacy is observed at all three dose levels; survival of mice ([13]; iv, formulation D, treatment 30 minutes post-infection): less activity; survival of mice ([13]; iv, formulation D, treatment 60 minutes post-infection): no significant effect; survival of mice ([13]; single iv injection of […] 15 minutes post-infection): best survival rate; Corrected MIC (E. cloacae [14]): >128 µg/mL; ONPG hydrolysis diminished, cells pre-incubated with valinomycin vs no pre-incubation (E.coli strain ML-35): approximately 50%; survival of mice (MRSA (ATCC # 33591); 1 mg/kg (20 min) protocol: five […] iv injections at −10, −5, 0, +5, +10 mins): delayed the death of the mice to a significant extent; survival of mice (MRSA (ATCC # 33591); 1 mg/kg (2 hr) protocol: five […] iv injections 1 hour apart): no improvement in survivability over the negative control; survival of mice (MRSA (ATCC # 33591); 5 mg/kg protocol: three 5.5 mg/kg iv injections at −5, +55, +115 mins): no improvement in survivability over the negative control; Percentage of Animals Surviving, Treatment (MRSA (ATCC # 33591); 6 hours post-infection): 70%; Percentage of Animals Surviving, Treatment (MRSA (ATCC # 33591); 10 hours post-infection): 30%; mice rescued from MSSA infection ([10]; 35.7 mg/kg ip, 60 minutes post-infection): 100%; activity at lower dose levels ([10]; dose levels lower than 35.7 mg/kg ip): little or no activity; Release of FD-4 (fluorescein isothiocyanate-labeled dextran, MW 4,400) (Liposome dye release; egg PC liposomes): No increase in FD-4 fluorescence is detected; Membrane permeabilizing activity (ANTS/DPX dye release) (Liposome dye release; egg PC liposomes with cholesterol added, even at very high lipid to peptide molar ratios): virtually abolishes membrane permeabilizing activity; Corrected MIC (A. calcoaceticus [17]): 4 µg/mL; Corrected MIC (S. marcescens [18]): >128 µg/mL; Corrected MIC (P. aeruginosa [19]): >128 µg/mL; Corrected MIC (K. pneumoniae [20]): 128 µg/mL |
| I L R R W P W W P W R K [MBI 11B2CN] | >256 µg/mL | 4 µg/mL | >256 µg/mL | 64 µg/mL | 32 µg/mL | 32 µg/mL | 64 µg/mL | >256 µg/mL | 256 µg/mL | 128 µg/mL | – | – | – | – | – | – | – | – | – | – | – |
| CC[C@H](C)[C@H](N)C(=O)N[C@@H](CC(C)C)C(=O)N[C@@H](CCCCN)C(=O)N[C@@H](CCCCN)C(=O)N[C@@H](Cc1c[nH]c2ccccc12)C(=O)N1CCC[C@H]1C(=O)N[C@@H](Cc1c[nH]c2ccccc12)C(=O)N[C@@H](Cc1c[nH]c2ccccc12)C(=O)N1CCC[C@H]1C(=O)N[C@@H](Cc1c[nH]c2ccccc12)C(=O)N[C@@H](CCCNC(=N)N)C(=O)N[C@@H](CCCNC(=N)N)C(=O)N[C@@H](CCCCN)C(N)=O [MBI 11CN HCl, I L K K W P W W P W R R K] (H-ILKKWPWWPWRRK-NH2; N-terminus assumed) | – | – | – | – | – | – | – | – | – | – | – | – | – | – | – | – | – | – | – | – | LD90-100 [21]: 8.0 mg/kg |
| i L K K W P W W P W R R k [MBI 11E3CN] | – | – | – | – | – | – | – | – | – | – | 8 µg/mL | 2 µg/mL | 16 µg/mL | 1 µg/mL | 4 µg/mL | 16 µg/mL | 1 µg/mL | 1 µg/mL | 64 µg/mL | 8 µg/mL | Corrected MIC (S. aureus [12]; S. aureus SA011): 4 µg/mL; Corrected MIC (E. cloacae [14]): >128 µg/mL; Corrected MIC (A. calcoaceticus [17]): 2 µg/mL; Corrected MIC (S. marcescens [18]): >128 µg/mL; Corrected MIC (P. aeruginosa [19]): 128 µg/mL; Corrected MIC (K. pneumoniae [20]): 8 µg/mL |
| I L R W P W W P W R R K [MBI 11B7CN] | >256 µg/mL | 4 µg/mL | 256 µg/mL | 64 µg/mL | 16 µg/mL | 32 µg/mL | 64 µg/mL | >256 µg/mL | 256 µg/mL | 64 µg/mL | 8 µg/mL | 8 µg/mL | 32 µg/mL | – | – | – | – | – | 32 µg/mL | 8 µg/mL | Growth time of cells at which maximum activity occurs (E.coli strain ML-35; early mid-log): 140 min; Growth time of cells at which maximum activity occurs (E.coli strain ML-35; late mid-log): 230 min; Effect on membrane permeabilizing activity (E.coli strain ML-35; peptide pre-incubated in HEPES/sucrose buffer with 5 mM Mg2+): significant inhibition; Effect on membrane permeabilizing activity (E.coli strain ML-35; peptide pre-incubated in HEPES/sucrose buffer with 150 mM NaCl): significant inhibition |
| I L K K I P I I P I R R K [MBI 11A2CN] | >256 µg/mL | 256 µg/mL | >256 µg/mL | >256 µg/mL | >256 µg/mL | >256 µg/mL | >256 µg/mL | >256 µg/mL | >256 µg/mL | >256 µg/mL | – | – | – | – | – | – | – | – | – | – | – |
| I L R R W P W W P W R R K [MBI 11B1CN] | >256 µg/mL | 4 µg/mL | >256 µg/mL | 64 µg/mL | 32 µg/mL | 32 µg/mL | 64 µg/mL | >256 µg/mL | 64 µg/mL | 64 µg/mL | – | 8 µg/mL | 32 µg/mL | 1 µg/mL | 8 µg/mL | 16 µg/mL | 1 µg/mL | 1 µg/mL | 128 µg/mL | 8 µg/mL | Corrected MIC (A. calcoaceticus [17]): 2 µg/mL; Corrected MIC (S. marcescens [18]): >128 µg/mL; Corrected MIC (P. aeruginosa [19]): 128 µg/mL |
